Experimental findings from ChEMBL document CHEMBL2331112, “Synthesis of novel 2-alkyl triazole-3-alkyl substituted quinoline derivatives and their cytotoxic activity” (Bioorg Med Chem Lett, 2013) are described below.

Converted amounts (≈) assume the structure as drawn.

The IC50 is the concentration needed to halve the response being measured. A high value points to weaker potency in that assay.

Holding throughout (assay type): functional, cell-based
The test system of one test is HeLa. Nature of the test: Cytotoxicity against human HeLa cells after 24 hrs by MTT assay. Background: Tetrazolium dyes change colour on reduction, which living cells bring about.
The subject of a further test is COLO 205. Nature of the test: Cytotoxicity against human COLO205 cells after 24 hrs by MTT assay. As to conditions: COLO 205, 24 h.
A further test has as its system THP-1. Nature of the test: Cytotoxicity against human THP1 cells after 24 hrs by MTT assay. The conditions noted are these: THP-1, 24 h.
A further test deals with U-937. Put plainly: Cytotoxicity against human U937 cells after 24 hrs by MTT assay. The conditions noted are these: U-937, 24 h.

`CCCCCCCCCCn1cc(-c2nc3ccccc3cc2CCCC)nn1`: the IC50 is > 100 mg/L with HeLa, > 100 mg/L in the test on COLO 205, > 100 mg/L in the test on THP-1 and 25.2 mg/L (≈ 64.3 µM) in the test with U-937.
As for `CCCCCc1cc2ccccc2nc1-c1cn(CCC(F)(F)C(F)(F)C(F)(F)C(F)(F)C(F)(F)C(F)(F)C(F)(F)C(F)(F)F)nn1`, the IC50 in the test with HeLa, in the test with COLO 205, in the test with THP-1 and in the test with U-937 was > 100 mg/L in each case.
Turning to `CCc1cc2ccccc2nc1-c1cn(-c2ccc(F)cc2)nn1`, the IC50 with HeLa, with COLO 205, in the test with THP-1 and with U-937 was > 100 mg/L each time.
Regarding `CCCCCCCCCCn1cc(-c2nc3ccccc3cc2CCCCC)nn1`, the IC50 in the test with HeLa was > 100 mg/L; in the test on COLO 205, > 100 mg/L; in the test on THP-1, 88 mg/L (≈ 216 µM); in the test on U-937, 18.2 mg/L (≈ 44.7 µM).
Regarding `CCCCc1cc2ccccc2nc1-c1cn(CCC(F)(F)C(F)(F)C(F)(F)C(F)(F)C(F)(F)C(F)(F)C(F)(F)C(F)(F)F)nn1`, the IC50 with HeLa was 32.8 mg/L (≈ 47 µM); in the test with COLO 205, > 100 mg/L; in the test on THP-1, > 100 mg/L; in the test with U-937, 59.1 mg/L (≈ 84.6 µM).
For `CCCCCCCCCCn1cc(-c2nc3ccccc3cc2CC)nn1`, the IC50 is > 100 mg/L with HeLa, > 100 mg/L with COLO 205, 34.3 mg/L (≈ 94 µM) in the test with THP-1 and 12.7 mg/L (≈ 34.9 µM) in the test on U-937.
Consider `Cc1cc2ccccc2nc1-c1cn(CCC(F)(F)C(F)(F)C(F)(F)C(F)(F)C(F)(F)C(F)(F)C(F)(F)C(F)(F)F)nn1`, for which the IC50 with HeLa was > 100 mg/L; with COLO 205 it was 75.8 mg/L (≈ 116 µM); in the test with THP-1, > 100 mg/L; in the test on U-937, 56.6 mg/L (≈ 86.2 µM).
For the compound `CCCCCc1cc2ccccc2nc1-c1cn(-c2ccc(F)cc2)nn1`, the IC50 was > 100 mg/L with HeLa, > 100 mg/L in the test with COLO 205, > 100 mg/L with THP-1 and 67.5 mg/L (≈ 187 µM) in the test with U-937.
With `Cc1cc2ccccc2nc1-c1cn(-c2ccc(F)cc2)nn1`, the IC50 in the test on HeLa was > 100 mg/L; in the test on COLO 205, > 100 mg/L; in the test with THP-1, > 100 mg/L; in the test with U-937, 65.6 mg/L (≈ 215 µM).
Turning to `CCCc1cc2ccccc2nc1-c1cn(CCC(F)(F)C(F)(F)C(F)(F)C(F)(F)C(F)(F)C(F)(F)C(F)(F)C(F)(F)F)nn1`, the IC50 in the test on HeLa is 37.8 mg/L (≈ 55.2 µM); in the test on COLO 205 it was > 100 mg/L; in the test with THP-1 it was > 100 mg/L; with U-937, > 100 mg/L.
For `CCCCCCCCCCn1cc(-c2nc3ccccc3cc2CCC)nn1`, the IC50 in the test with HeLa was > 100 mg/L; in the test with COLO 205 it was > 100 mg/L; in the test with THP-1, > 100 mg/L; with U-937, 26.6 mg/L (≈ 70.2 µM).
`O=c1[nH]cc(F)c(=O)[nH]1` [FLUOROURACIL]: the IC50 is 1.28 mg/L (≈ 9.84 µM) with HeLa, 4.03 mg/L (≈ 31 µM) with COLO 205, 0.54 mg/L (≈ 4.15 µM) with THP-1 and 0.87 mg/L (≈ 6.69 µM) in the test on U-937.
In the case of `CCCCc1cc2ccccc2nc1-c1cn(-c2ccc(F)cc2)nn1`, the IC50 in the test with HeLa is > 100 mg/L; with COLO 205, > 100 mg/L; with THP-1, 78.3 mg/L (≈ 226 µM); in the test on U-937, 66.2 mg/L (≈ 191 µM).
For the compound `CCCc1cc2ccccc2nc1-c1cn(-c2ccc(F)cc2)nn1`, the IC50 in the test on HeLa was > 100 mg/L; in the test with COLO 205 it was > 100 mg/L; in the test on THP-1, > 100 mg/L; in the test with U-937, 67.4 mg/L (≈ 203 µM).
Consider `CCc1cc2ccccc2nc1-c1cn(CCC(F)(F)C(F)(F)C(F)(F)C(F)(F)C(F)(F)C(F)(F)C(F)(F)C(F)(F)F)nn1`, for which the IC50 is > 100 mg/L in the test with HeLa, 95.2 mg/L (≈ 142 µM) with COLO 205, > 100 mg/L in the test on THP-1 and 55.9 mg/L (≈ 83.4 µM) with U-937.
Take `CCCCCCCCCCn1cc(-c2nc3ccccc3cc2C)nn1`: the half-maximal inhibitory concentration (IC50) with HeLa is 28.2 mg/L (≈ 80.4 µM); in the test with COLO 205 it was 44.5 mg/L (≈ 127 µM); in the test with THP-1, > 100 mg/L; in the test with U-937, > 100 mg/L.
